The values that follow are results of earlier work, collected in US20060045850A1, “Nasal delivery of cyclodextrin complexes of anti-inflammatory steroids” (QPharma, LLC, priority 2004, published 2006).

As to `CCC(=O)O[C@]1(C(=O)SCF)[C@H](C)C[C@H]2[C@@H]3C[C@H](F)C4=CC(=O)C=C[C@]4(C)[C@@]3(F)[C@@H](O)C[C@@]21C` [Fluticasone], the “absorption when administered orally” value (administered orally) is listed as “no absorption”. Moreover, for the setting “from the suspension formulation, administered nasally”, the absolute bio-availability result is recorded as “less than 2.0%”.
